Assay results as given in PubChem BioAssay (NCI).
Several values for one entry are separate records, joined by “and”; a condition that tells them apart may be missing. Identical values can stand only once.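 Five concentrations, 48 hours, 96-well plates. The concentration for 50% growth inhibition is given as GI50. TGI is the concentration that stops growth completely.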

Columns and labels:
Test in all cases: growth of human tumour cells (NCI), 48 h
MDA-MB-231 breast = tested on: MDA-MB-231 breast
COLO 205 colon = tested on: COLO 205 colon
HCC-2998 colon = tested on: HCC-2998 colon
M14 melanoma = tested on: M14 melanoma
HT29 colon = tested on: HT29 colon
NCI-H226 lung = tested on: NCI-H226 lung
RXF 393 renal = tested on: RXF 393 renal
MDA-MB-435 = tested on: MDA-MB-435
U251 CNS = tested on: U251 CNS
SN12C renal = tested on: SN12C renal
HCT-15 colon = tested on: HCT-15 colon
UO-31 renal = tested on: UO-31 renal
MALME-3M melanoma = tested on: MALME-3M melanoma
K-562 leukemia = tested on: K-562 leukemia
IGROV1 ovarian = tested on: IGROV1 ovarian
SR leukemia = tested on: SR leukemia
SK-MEL-2 melanoma = tested on: SK-MEL-2 melanoma
UACC-62 melanoma = tested on: UACC-62 melanoma
SF-295 CNS = tested on: SF-295 CNS
UACC-257 melanoma = tested on: UACC-257 melanoma
PC-3 prostate = tested on: PC-3 prostate
CCRF-CEM leukemia = tested on: CCRF-CEM leukemia
OVCAR-4 ovarian = tested on: OVCAR-4 ovarian
T-47D breast = tested on: T-47D breast
SK-MEL-28 melanoma = tested on: SK-MEL-28 melanoma
MCF7 breast = tested on: MCF7 breast
NCI-H460 lung = tested on: NCI-H460 lung
TK-10 renal = tested on: TK-10 renal
NCI/ADR-RES ovarian = tested on: NCI/ADR-RES ovarian
EKVX NSCLC = tested on: EKVX NSCLC
ACHN renal = tested on: ACHN renal
HOP-62 NSCLC = tested on: HOP-62 NSCLC
A498 renal = tested on: A498 renal
OVCAR-5 ovarian = tested on: OVCAR-5 ovarian
LOX IMVI melanoma = tested on: LOX IMVI melanoma
SK-OV-3 ovarian = tested on: SK-OV-3 ovarian
SF-268 CNS = tested on: SF-268 CNS
OVCAR-8 ovarian = tested on: OVCAR-8 ovarian
NCI-H522 lung = tested on: NCI-H522 lung
OVCAR-3 ovarian = tested on: OVCAR-3 ovarian
HL-60(TB) leukemia = tested on: HL-60(TB) leukemia
HCT-116 colon = tested on: HCT-116 colon
SNB-19 CNS = tested on: SNB-19 CNS
SW-620 colon = tested on: SW-620 colon
CAKI-1 renal = tested on: CAKI-1 renal
MDA-N = tested on: MDA-N
DU-145 prostate = tested on: DU-145 prostate
NCI-H23 lung = tested on: NCI-H23 lung
786-0 renal = tested on: 786-0 renal
SK-MEL-5 melanoma = tested on: SK-MEL-5 melanoma
KM12 colon = tested on: KM12 colon
SF-539 CNS = tested on: SF-539 CNS
A549 NSCLC = tested on: A549 NSCLC
MOLT-4 leukemia = tested on: MOLT-4 leukemia
HOP-92 NSCLC = tested on: HOP-92 NSCLC
SNB-75 CNS = tested on: SNB-75 CNS
HS 578T breast = tested on: HS 578T breast

CCc1c(C)c(C#N)c(=S)n(C2OC(COC(C)=O)C(OC(C)=O)C(OC(C)=O)C2OC(C)=O)c1C (stereo unspecified)
GI50 (MDA-MB-231 breast): > 100 µM and 13 µM
TGI (MDA-MB-231 breast): > 100 µM and 73.9 µM
TGI (COLO 205 colon): > 100 µM
TGI (HCC-2998 colon): > 100 µM
TGI (M14 melanoma): > 100 µM
TGI (HT29 colon): > 100 µM
GI50 (NCI-H226 lung): > 100 µM and 38.2 µM
TGI (NCI-H226 lung): > 100 µM
TGI (RXF 393 renal): > 100 µM and 29.1 µM
TGI (MDA-MB-435): > 100 µM
GI50 (U251 CNS): > 100 µM and 26.9 µM
TGI (U251 CNS): > 100 µM
TGI (SN12C renal): > 100 µM
TGI (HCT-15 colon): > 100 µM
GI50 (UO-31 renal): 11 µM and 3.57 µM
TGI (UO-31 renal): 92.2 µM and 14.5 µM
TGI (MALME-3M melanoma): > 100 µM
TGI (K-562 leukemia): > 100 µM
TGI (IGROV1 ovarian): > 100 µM
TGI (SR leukemia): > 100 µM
TGI (SK-MEL-2 melanoma): 32.9 µM
GI50 (UACC-62 melanoma): > 100 µM and 47.6 µM
TGI (UACC-62 melanoma): > 100 µM
GI50 (SF-295 CNS): > 100 µM and 23 µM
TGI (SF-295 CNS): > 100 µM
TGI (UACC-257 melanoma): > 100 µM
TGI (PC-3 prostate): > 100 µM and 27.9 µM
TGI (CCRF-CEM leukemia): > 100 µM
TGI (OVCAR-4 ovarian): > 100 µM
TGI (T-47D breast): > 100 µM
TGI (SK-MEL-28 melanoma): > 100 µM
TGI (MCF7 breast): > 100 µM
TGI (NCI-H460 lung): > 100 µM
GI50 (TK-10 renal): 92.8 µM and 26.3 µM
TGI (TK-10 renal): > 100 µM and 69.4 µM
TGI (NCI/ADR-RES ovarian): > 100 µM
TGI (EKVX NSCLC): > 100 µM
GI50 (ACHN renal): > 100 µM and 18.9 µM
TGI (ACHN renal): > 100 µM
GI50 (HOP-62 NSCLC): 45.4 µM and 5.33 µM
TGI (HOP-62 NSCLC): > 100 µM and 21.8 µM
GI50 (A498 renal): > 100 µM and 30.2 µM
TGI (A498 renal): > 100 µM and 92.4 µM
GI50 (OVCAR-5 ovarian): > 100 µM and 45.9 µM
TGI (OVCAR-5 ovarian): > 100 µM
TGI (LOX IMVI melanoma): > 100 µM
GI50 (SK-OV-3 ovarian): 63.4 µM and 20.8 µM
TGI (SK-OV-3 ovarian): > 100 µM and 84.6 µM
TGI (SF-268 CNS): > 100 µM
TGI (OVCAR-8 ovarian): > 100 µM
TGI (NCI-H522 lung): > 100 µM
TGI (OVCAR-3 ovarian): > 100 µM
TGI (HL-60(TB) leukemia): > 100 µM
GI50 (HCT-116 colon): > 100 µM and 21.7 µM
TGI (HCT-116 colon): > 100 µM and 45.5 µM
GI50 (SNB-19 CNS): > 100 µM and 21.5 µM
TGI (SNB-19 CNS): > 100 µM and 93 µM
TGI (SW-620 colon): > 100 µM
TGI (CAKI-1 renal): > 100 µM
TGI (MDA-N): > 100 µM
TGI (DU-145 prostate): > 100 µM
TGI (NCI-H23 lung): > 100 µM
TGI (786-0 renal): > 100 µM and 41.5 µM
TGI (SK-MEL-5 melanoma): > 100 µM
TGI (KM12 colon): > 100 µM
GI50 (SF-539 CNS): > 100 µM and 31.4 µM
TGI (SF-539 CNS): > 100 µM
TGI (A549 NSCLC): > 100 µM
TGI (MOLT-4 leukemia): > 100 µM

COc1cc(/C=C2\CN(C)CC3=C2NC(=S)NC3c2cc(OC)c(OC)c(OC)c2)cc(OC)c1OC (stereo unspecified)
TGI (MDA-MB-231 breast): > 100 µM
TGI (COLO 205 colon): > 100 µM
TGI (M14 melanoma): > 100 µM
TGI (HT29 colon): > 100 µM
TGI (SN12C renal): > 100 µM
TGI (HCT-15 colon): > 100 µM
TGI (MALME-3M melanoma): > 100 µM
TGI (HOP-92 NSCLC): > 100 µM
TGI (IGROV1 ovarian): > 100 µM
TGI (SR leukemia): > 100 µM
TGI (SNB-75 CNS): > 100 µM
TGI (SK-MEL-2 melanoma): > 100 µM
TGI (HS 578T breast): > 100 µM
TGI (UACC-62 melanoma): > 100 µM
TGI (SF-295 CNS): > 100 µM
TGI (UACC-257 melanoma): > 100 µM
TGI (PC-3 prostate): > 100 µM
TGI (OVCAR-4 ovarian): > 100 µM
TGI (T-47D breast): > 100 µM
TGI (NCI-H460 lung): > 100 µM
TGI (NCI/ADR-RES ovarian): > 100 µM
TGI (EKVX NSCLC): > 100 µM
TGI (ACHN renal): > 100 µM
TGI (HOP-62 NSCLC): > 100 µM
TGI (LOX IMVI melanoma): > 100 µM
TGI (SK-OV-3 ovarian): > 100 µM
TGI (SF-268 CNS): > 100 µM
TGI (OVCAR-8 ovarian): > 100 µM
TGI (NCI-H522 lung): > 100 µM
TGI (OVCAR-3 ovarian): > 100 µM
TGI (SW-620 colon): > 100 µM
TGI (MDA-N): > 100 µM
TGI (DU-145 prostate): > 100 µM
TGI (786-0 renal): > 100 µM
TGI (SK-MEL-5 melanoma): 65.7 µM
TGI (A549 NSCLC): > 100 µM
TGI (MOLT-4 leukemia): > 100 µM
